Measured values taken from ChEMBL document CHEMBL3399967, “Design and discovery of 2-oxochromene derivatives as liver X receptor β-selective agonists” (Bioorg Med Chem Lett, 2015).

Experiments:
[1] = target: T1, Oxysterols receptor LXR-alpha (Homo sapiens, UniProt Q13133); experiment: Agonist activity at Gal4-tagged LXRalpha (unknown origin) expressed in CHOK1 cells after 24 hrs by luciferase reporter gene assay; assay type: cell-based, CHO-K1
T1 sequence (Q13133 whole entry): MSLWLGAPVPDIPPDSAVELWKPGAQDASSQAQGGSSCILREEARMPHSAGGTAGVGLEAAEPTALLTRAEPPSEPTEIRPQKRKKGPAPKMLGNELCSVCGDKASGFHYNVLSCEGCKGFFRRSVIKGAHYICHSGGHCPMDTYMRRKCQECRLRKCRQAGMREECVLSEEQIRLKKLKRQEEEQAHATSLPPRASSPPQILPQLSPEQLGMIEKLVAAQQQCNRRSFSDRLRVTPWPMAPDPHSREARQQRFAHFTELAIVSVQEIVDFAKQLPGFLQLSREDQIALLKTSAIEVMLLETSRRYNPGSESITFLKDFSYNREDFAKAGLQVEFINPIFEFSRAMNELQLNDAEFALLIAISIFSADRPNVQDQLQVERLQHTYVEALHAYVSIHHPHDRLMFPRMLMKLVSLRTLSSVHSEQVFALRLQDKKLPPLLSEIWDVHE

[2] = target: T2, Oxysterols receptor LXR-beta (Homo sapiens, UniProt P55055); experiment: Agonist activity at Gal4-tagged LXRbeta (unknown origin) expressed in CHOK1 cells after 24 hrs by luciferase reporter gene assay; assay type: cell-based, CHO-K1
T2 sequence (P55055 whole entry): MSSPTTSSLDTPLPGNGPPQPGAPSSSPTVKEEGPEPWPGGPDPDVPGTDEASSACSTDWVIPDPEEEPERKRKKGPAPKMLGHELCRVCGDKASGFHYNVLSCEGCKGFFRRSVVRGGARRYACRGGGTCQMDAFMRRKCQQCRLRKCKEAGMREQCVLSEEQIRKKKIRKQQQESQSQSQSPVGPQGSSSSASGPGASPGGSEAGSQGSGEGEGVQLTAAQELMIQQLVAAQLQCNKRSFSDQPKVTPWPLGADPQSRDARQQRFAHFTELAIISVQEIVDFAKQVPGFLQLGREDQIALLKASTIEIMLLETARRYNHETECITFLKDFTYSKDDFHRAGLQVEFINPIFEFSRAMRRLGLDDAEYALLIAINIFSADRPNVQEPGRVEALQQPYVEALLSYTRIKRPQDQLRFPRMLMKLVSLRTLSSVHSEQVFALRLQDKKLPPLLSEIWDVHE

[3] = Plasma concentration in Golden Syrian hamster at 300 mg/kg, po after 0.5 hrs; assay type: ADME, organism-based, Mesocricetus auratus; design: dose 300 mg/kg, route oral
[4] = tested on: Hamster; experiment: Effect on area of lipid accumulation in high-fat-and-cholesterol diet fed Male Bio F1B hamster aortic arch at 30 mg/kg, po relative to control; assay type: functional, Cricetinae
[5] = tested on: Hamster; experiment: Effect on total cholesterol level in high-fat-and-cholesterol diet fed Male Bio F1B hamster plasma at 300 mg/kg, po relative to control; assay type: functional, Cricetinae
[6] = tested on: Hamster; experiment: Effect on Plasma triglyceride level in high-fat-and-cholesterol diet fed Male Bio F1B hamster at 300 mg/kg, po relative to control; assay type: organism-based; design: dose 300 mg/kg, route oral; settings: cricetinae, in vivo
[7] = Plasma concentration in Golden Syrian hamster at 300 mg/kg, po after 1 hr; assay type: ADME, organism-based, Mesocricetus auratus; design: dose 300 mg/kg, route oral
[8] = tested on: Hamster; experiment: Effect on HDL-C level in high-fat-and-cholesterol diet fed Male Bio F1B hamster plasma at 30 mg/kg, po relative to control; assay type: functional, Cricetinae
[9] = tested on: Hamster; experiment: Effect on HDL-C level in high-fat-and-cholesterol diet fed Male Bio F1B hamster plasma at 100 mg/kg, po relative to control; assay type: functional, Cricetinae
[10] = tested on: Hamster; experiment: Effect on Plasma triglyceride level in high-fat-and-cholesterol diet fed Male Bio F1B hamster at 100 mg/kg, po relative to control; assay type: organism-based; design: dose 100 mg/kg, route oral; settings: cricetinae, in vivo
[11] = Plasma concentration in Golden Syrian hamster at 300 mg/kg, po after 2 hrs; assay type: ADME, organism-based, Mesocricetus auratus; design: dose 300 mg/kg, route oral
[12] = tested on: Hamster; experiment: Effect on Plasma triglyceride level in high-fat-and-cholesterol diet fed Male Bio F1B hamster at 30 mg/kg, po relative to control; assay type: organism-based; design: dose 30 mg/kg, route oral; settings: cricetinae, in vivo
[13] = tested on: Hamster; experiment: Effect on total cholesterol level in high-fat-and-cholesterol diet fed Male Bio F1B hamster plasma at 30 mg/kg, po relative to control; assay type: functional, Cricetinae
[14] = tested on: Hamster; experiment: Effect on total cholesterol level in high-fat-and-cholesterol diet fed Male Bio F1B hamster plasma at 100 mg/kg, po relative to control; assay type: functional, Cricetinae
[15] = tested on: Hamster; experiment: Effect on HDL-C level in high-fat-and-cholesterol diet fed Male Bio F1B hamster plasma at 300 mg/kg, po relative to control; assay type: functional, Cricetinae
[16] = tested on: Syrian golden hamster; experiment: Plasma concentration in Golden Syrian hamster at 100 mg/kg, po; assay type: ADME, organism-based, Mesocricetus auratus; design: dose 100 mg/kg, route oral; settings: in vivo
[17] = tested on: Hamster; experiment: Effect on area of lipid accumulation in high-fat-and-cholesterol diet fed Male Bio F1B hamster aortic arch at 300 mg/kg, po relative to control; assay type: functional, Cricetinae, Pharyngeal arch artery
[18] = tested on: Hamster; experiment: Effect on area of lipid accumulation in high-fat-and-cholesterol diet fed Male Bio F1B hamster aortic arch at 100 mg/kg, po relative to control; assay type: functional, Cricetinae, Pharyngeal arch artery
[19] = tested on: HepG2; experiment: Induction of SREBP-1c mRNA expression in human HepG2 cells at 5 uM relative to control; assay type: functional
[20] = tested on: HepG2; experiment: Induction of ABCA1 mRNA expression in human HepG2 cells at 5 uM relative to control; assay type: functional
[21] = tested on: HepG2; experiment: Ratio of induction of ABCA1 mRNA expression to SREBP-1c mRNA expression in human HepG2 cells at 5 uM; assay type: functional

## CCCc1cc2c(C(F)(F)F)cc(=O)oc2c(CCC)c1OCCCCN1C(=O)N(C)C(C)(c2ccccc2)C1=O (stereo not given)
[1]; cho-k1
  EC50: Not Active
[2]; cho-k1
  EC50: Not Active

## CCCc1cc2c(C(F)(F)F)cc(=O)oc2c(CCC)c1OCCCCN1C(=O)NC(C)(c2ccc(C(F)(F)F)cc2)C1=O (stereo not given)
[1]; cho-k1
  EC50: Not Active

## CCCc1c(OCCCCN2C(=O)NC(C)(c3ccc(O)cc3)C2=O)ccc2c(C(F)(F)F)cc(=O)oc12 (stereo not given)
[1]; cho-k1
  EC50: Not Active

## CCCc1cc2c(C(F)(F)F)cc(=O)oc2c(CCC)c1OCCCCN1C(=O)CN(C)C1=O
[1]; read-out: EC50
  EC50: 2600 nM
[2]; read-out: EC50
  EC50: 1300 nM

## CCCc1cc2c(C(F)(F)F)cc(=O)oc2c(CCC)c1OCCCCN1C(=O)N(C)C(C)(C)C1=O
[1]; read-out: EC50
  EC50: 11000 nM
[2]; read-out: EC50
  EC50: 4700 nM

## CCCc1cc2c(C(F)(F)F)cc(=O)oc2c(CCC)c1OCCCCN1CCCC1=O
[1]; cho-k1
  EC50: Not Active
[2]; cho-k1
  EC50: Not Active

## CCCc1cc2c(C(F)(F)F)cc(=O)oc2c(CCC)c1OCCCCN1C(=O)NC(C)(c2ccc(N(C)C)cc2)C1=O (stereo not given)
[1]; cho-k1
  EC50: Not Active
[2]; cho-k1
  EC50: Not Active

## CCCc1c(OCCCCN2C(=O)NC(C)(c3ccc(C(=O)O)cc3)C2=O)ccc2c(C(F)(F)F)cc(=O)oc12 (stereo not given)
[1]; cho-k1
  EC50: Not Active
[2]; cho-k1
  EC50: Not Active

## CCCc1cc2c(C(F)(F)F)cc(=O)oc2c(CCC)c1OCCCCN1C(=O)NC(C)(c2ccccc2)C1=O (stereo not given)
[1]; cho-k1
  EC50: Not Active
[2]; read-out: EC50
  EC50: 5300 nM

## CCCc1c(OCCCCN2C(=O)NC(C)(c3ccccc3)C2=O)ccc2c(C(F)(F)F)cc(=O)oc12 (stereo not given)
[1]; cho-k1
  EC50: Not Active
[2]; read-out: EC50
  EC50: 2000 nM

## CCCc1cc2c(C(F)(F)F)cc(=O)oc2c(CCC)c1OCCCCN1C(=O)NC(C)(c2ccc(C(=O)O)cc2)C1=O (stereo not given)
[1]; cho-k1
  EC50: Not Active
[2]; cho-k1
  EC50: Not Active

## CCCc1c(OCCCCN2C(=O)NC(C)(c3ccc(OC)cc3)C2=O)ccc2c(C(F)(F)F)cc(=O)oc12 (stereo not given)
[3]
  concentration at 0.5 h: 50 ng/mL
[4]
  Activity: 119%
[5]
  Activity: 98%
[6]
  Activity: 96%
[7]
  concentration at 1 h: 53 ng/mL
[8]
  Activity: 96%
[9]
  Activity: 96%
[10]
  Activity: 131%
[11]
  concentration at 2 h: 59 ng/mL
[12]
  Activity: 136%
[13]
  Activity: 115%
[14]
  Activity: 101%
[15]
  Activity: 113%
[16]
  Cp: Not Active
[17]
  Activity: 56%
[18]
  Activity: 102%

## CCCc1cc2c(C(F)(F)F)cc(=O)oc2c(CCC)c1OCCCCN1C(=O)NC(C)(c2ccc(C)cc2)C1=O (stereo not given)
[1]; cho-k1
  EC50: Not Active
[2]; read-out: EC50
  EC50: 2400 nM

## CCCc1cc2c(C(F)(F)F)cc(=O)oc2c(CCC)c1OCCCCN1C(=O)CSC1=O
[1]; read-out: EC50
  EC50: 2600 nM
[2]; read-out: EC50
  EC50: 1400 nM

## CCCc1c(OCCCCN2C(=O)NC(C)(c3ccc4c(c3)OCO4)C2=O)ccc2c(C(F)(F)F)cc(=O)oc12 (stereo not given)
[2]; read-out: EC50
  EC50: 1100 nM

## O=c1cc(C(F)(F)F)c2cc3c4c(c2o1)CCCN4CCC3
[19]
  fold change (FC): 3.9
[20]
  fold change (FC): 9.1
[21]
  Ratio: 2.3

## CCCc1cc2c(C(F)(F)F)cc(=O)oc2c(CCC)c1OCCCCN1CCOC1=O
[2]; read-out: EC50
  EC50: 2200 nM
